Data from ChEMBL document CHEMBL3217500, “Identification of a novel nanomolar inhibitor of hIcmt via a carboxylate replacement approach” (Medchemcomm, 2012).
Active and inactive are the calls of the source. No cut-off for these calls is given here.

Columns and labels:
[1] = biological target: T1, Protein-S-isoprenylcysteine O-methyltransferase (Homo sapiens, UniProt O60725); assay: Activity at human isoprenylcysteine carboxyl methyltransferase using [14C]SAM by vapor diffusion assay relative to AFC
T1 sequence (O60725 whole entry, the tested form may be a part): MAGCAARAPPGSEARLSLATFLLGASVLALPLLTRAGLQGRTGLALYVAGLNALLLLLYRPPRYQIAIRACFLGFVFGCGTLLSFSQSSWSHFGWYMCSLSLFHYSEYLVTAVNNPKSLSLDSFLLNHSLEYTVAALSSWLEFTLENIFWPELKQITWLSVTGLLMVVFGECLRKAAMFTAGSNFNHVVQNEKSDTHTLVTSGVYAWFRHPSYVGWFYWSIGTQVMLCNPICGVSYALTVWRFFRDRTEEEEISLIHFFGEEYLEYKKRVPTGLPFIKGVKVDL

[2] = biological target: T1, Protein-S-isoprenylcysteine O-methyltransferase; assay: Inhibition of human isoprenylcysteine carboxyl methyltransferase using [14C]SAM and N-acetyl-S-farnesyl-L-cysteine as substrate at 10 uM after 30 mins by vapor diffusion assay
[3] = biological target: T1, Protein-S-isoprenylcysteine O-methyltransferase; assay: Inhibition of isoprenylcysteine carboxyl methyltransferase in human Jurkat cells assessed as mislocalization of GFP-K-Ras at 45 uM after 24 hrs by fluorescence microscopic analysis; assay type: cell-based
[4] = biological target: T1, Protein-S-isoprenylcysteine O-methyltransferase; assay: Un-competitive inhibition of human isoprenylcysteine carboxyl methyltransferase using [14C]SAM and N-acetyl-S-farnesyl-L-cysteine as substrate by Lineweaver-Burk plot analysis
[5] = biological target: T1, Protein-S-isoprenylcysteine O-methyltransferase; assay: Inhibition of isoprenylcysteine carboxyl methyltransferase in human Jurkat cells assessed as mislocalization of GFP-K-Ras at 10 uM after 24 hrs by fluorescence microscopic analysis; assay type: cell-based
[6] = biological target: T1, Protein-S-isoprenylcysteine O-methyltransferase; assay: Inhibition of human isoprenylcysteine carboxyl methyltransferase using [14C]SAM and N-acetyl-S-farnesyl-L-cysteine as substrate after 30 mins by vapor diffusion assay
[7] = biological target: T1, Protein-S-isoprenylcysteine O-methyltransferase; assay: Competitive inhibition of human isoprenylcysteine carboxyl methyltransferase using [14C]SAM and N-acetyl-S-farnesyl-L-cysteine as substrate by Lineweaver-Burk plot analysis

In the case of CC(C)=CCC/C(C)=C/CC/C(C)=C/CC/C(C)=C/CSCCO, the Activity [1] is reported as “inactive” and the inhibition [2] is reported as 40%.

In the case of CCOP(=O)(CCSC/C=C(\C)CC/C=C(\C)CCC=C(C)C)OCC, the Activity [1] is reported as “inactive” and the inhibition [2] is reported as 36%.

COC(=O)C(C)(C)SC/C=C(\C)CC/C=C(\C)CCC=C(C)C was tested, and the Activity [1] was “inactive” and the inhibition [2] was 8%.

For CC(C)=CCC/C(C)=C/CC/C(C)=C/CSCCCBr, the Activity [1] was “inactive” and the inhibition [2] was 9%.

In the case of CC(C)=CCC/C(C)=C/CC/C(C)=C/CSCCS, the Activity [1] is reported as “inactive” and the inhibition [2] is reported as 0%.

For COC(=O)CSC/C=C(\C)CC/C=C(\C)CC/C=C(\C)CCC=C(C)C, the Activity [1] was “inactive” and the inhibition [2] was 12%.

In the case of COC(=O)C(F)(F)SC/C=C(\C)CC/C=C(\C)CCC=C(C)C, the Activity [1] is reported as “inactive” and the inhibition [2] is reported as 68%.

CC(=O)OCCSC/C=C(\C)CC/C=C(\C)CCC=C(C)C was tested, and the Activity [1] was “inactive” and the inhibition [2] was 27%.

For CC(C)=CCC/C(C)=C/CC/C(C)=C/CSC(C)(C)CO, the Activity [1] was “inactive” and the inhibition [2] was 32%.

With CC(C)=CCC/C(C)=C/CC/C(C)=C/CSC(C)(C)C(=O)O the Activity [1] was “inactive” and the inhibition [2] was 27%.

In the case of CC(C)=CCC/C(C)=C/CC/C(C)=C/CSCCC(=O)NO, the Activity [1] is reported as “inactive” and the inhibition [2] is reported as 22%.

For COC(=O)CSC/C=C(\C)CC/C=C(\C)CCC=C(C)C, the Activity [1] was “inactive” and the inhibition [2] was 28%.

COC(=O)CSC/C=C(\C)CCC=C(C)C was tested, and the Activity [1] was “inactive” and the inhibition [2] was 0%.

CC(C)=CCC/C(C)=C/CC/C(C)=C/CSCCC(=O)O gave an Activity [1] of 50% and an inhibition [2] of 28%.

For CCC(C)(C)C(=O)O[C@H]1C[C@@H](C)C=C2C=C[C@H](C)[C@H](CC[C@@H]3C[C@@H](O)CC(=O)O3)[C@H]21, the inhibition [3] was “Active”.

With CC(C)=CCC/C(C)=C/CC/C(C)=C/CCSCCO the Activity [1] was “inactive” and the inhibition [2] was 20%.

In the case of CC(C)=CCC/C(C)=C/CC/C(C)=C/CSCC(C)O (configuration not stated), the Activity [1] is reported as “inactive” and the inhibition [2] is reported as 72%.

With CC(C)=CCC/C(C)=C/CC/C(C)=C/CSCC(=O)NO the Activity [1] was “inactive” and the inhibition [2] was 36%.

For CC(C)=CCC/C(C)=C/CC/C(C)=C/CSCC1OCCO1, the Activity [1] was “inactive” and the inhibition [2] was 9%.

With CCCSC/C=C(\C)CC/C=C(\C)CCC=C(C)C the Activity [1] was “inactive” and the inhibition [2] was 0%.

In the case of CC(C)=CCC/C(C)=C/CC/C(C)=C/CSCC=O, the Activity [1] is reported as “inactive” and the inhibition [2] is reported as 13%.

In the case of CC(C)=CCC/C(C)=C/CC/C(C)=C/CSCCO, the Activity [1] is reported as “inactive”, the Kiuc [4] is reported as 0.43 µM and the inhibition [5] is reported as “Active”. For the same molecule, the inhibition [2] was 93%, the IC50 [6] was 860 nM and the Kic [7] was 0.44 µM.

With CC(C)=CCC/C(C)=C/CC/C(C)=C/CSC(F)(F)CO the Activity [1] was “inactive” and the inhibition [2] was 44%.

COC(=O)CSCC/C=C(\C)CC/C=C(\C)CCC=C(C)C was tested, and the Activity [1] was “inactive” and the inhibition [2] was 12%.

For CC(C)=CCC/C(C)=C/CC/C(C)=C/CSCC(=O)O, the Activity [1] was “inactive” and the inhibition [2] was 50%.

For CC(C)=CCC/C(C)=C/CC/C(C)=C/CSCCN, the Activity [1] was “inactive” and the inhibition [2] was 6%.

For CCOP(=O)(CCCSC/C=C(\C)CC/C=C(\C)CCC=C(C)C)OCC, the Activity [1] was “inactive” and the inhibition [2] was 20%.

For COCCSC/C=C(\C)CC/C=C(\C)CCC=C(C)C, the Activity [1] was “inactive” and the inhibition [2] was 0%.

CC(C)=CCC/C(C)=C/CC/C(C)=C/CSCC(N)=O was tested, and the Activity [1] was “inactive” and the inhibition [2] was 47%.

With CC(C)=CCC/C(C)=C/CC/C(C)=C/CSCCCO the Activity [1] was “inactive” and the inhibition [2] was 34%.

In the case of CC(=O)CSC/C=C(\C)CC/C=C(\C)CCC=C(C)C, the Activity [1] is reported as “inactive” and the inhibition [2] is reported as 25%.

With CC(C)=CCC/C(C)=C/CSCC(=O)O the Activity [1] was “inactive” and the inhibition [2] was 0%.

In the case of COC(=O)CCSC/C=C(\C)CC/C=C(\C)CCC=C(C)C, the Activity [1] is reported as “inactive” and the inhibition [2] is reported as 14%.

With CC(C)=CCC/C(C)=C/CC/C(C)=C/CSc1ccccc1C(=O)O the inhibition [2] was 40%.

CC(C)=CCC/C(C)=C/CSCCO was tested, and the Activity [1] was “inactive” and the inhibition [2] was 0%.

With CC(C)=CCC/C(C)=C/CC/C(C)=C/CSCCN=[N+]=[N-] the Activity [1] was “inactive” and the inhibition [2] was 11%.

CCOC(=O)NCCSC/C=C(\C)CC/C=C(\C)CCC=C(C)C was tested, and the Activity [1] was “inactive” and the inhibition [2] was 10%.

CC(C)=CCC/C(C)=C/CC/C(C)=C/CSC(C)C was tested, and the Activity [1] was “inactive” and the inhibition [2] was 0%.

In the case of CC(=O)SC/C=C(\C)CC/C=C(\C)CCC=C(C)C, the Activity [1] is reported as “inactive” and the inhibition [2] is reported as 3%.

CC(C)=CCC/C(C)=C/CC/C(C)=C/CSCC(O)CO (configuration not stated) was tested, and the Activity [1] was “inactive” and the inhibition [2] was 75%.
